Test results taken from patent publication US6054435A, “6-O-substituted macrolides having antibacterial activity” (priority 1999, dated 2000).
In brackets after ≈: the same amount, converted by molar mass.

How the values were obtained:
Assay in all cases: in vitro antibacterial activity (MIC), agar dilution
Format in all cases: cell-based
[1] = tested on: Candida albicans CCH 442; conditions: organism code TT; BHI agar, 35-37° C., 20 to 24 hours; unit assumed
In short: (§1)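 Steps: dilute compound serially into BHI agar (twelve plates); spot inocula diluted 1:100, or 1:10 for slow-growing Streptococcus; incubate; inspect visually. MIC recorded as lowest level with no growth, slight haze or sparse isolated colonies.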

[2] = tested on: Enterococcus faecium ATCC 8043; conditions: organism code II; BHI agar, 35-37° C., 20 to 24 hours; unit assumed
In short: as §1

[3] = tested on: Escherichia coli DC-2; conditions: organism code SS; BHI agar, 35-37° C., 20 to 24 hours; unit assumed
In short: as §1

[4] = tested on: Escherichia coli JUHL; conditions: organism code QQ; BHI agar, 35-37° C., 20 to 24 hours; unit assumed
In short: as §1

[5] = tested on: Escherichia coli SS; conditions: organism code RR; BHI agar, 35-37° C., 20 to 24 hours; unit assumed
In short: as §1

[6] = tested on: Haemophilis Influenzae DILL AMP R; conditions: organism code WW; BHI agar, 35-37° C., 20 to 24 hours; unit assumed
In short: as §1

[7] = tested on: Micrococcus luteus ATCC 4698; conditions: organism code PP; BHI agar, 35-37° C., 20 to 24 hours; unit assumed
In short: (§2)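 BHI agar incorporation method; twelve compound concentrations. Streptococcus and other slow growers inoculated at 1:10, other strains at 1:100. Visual MIC read-out versus growth control.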

[8] = tested on: Micrococcus luteus ATCC 9341; conditions: organism code OO; BHI agar, 35-37° C., 20 to 24 hours; unit assumed
In short: as §2

[9] = tested on: Mycobacterium smegmatis ATCC 114; conditions: organism code UU; BHI agar, 35-37° C., 20 to 24 hours; unit assumed
In short: as §1

[10] = tested on: Nocardia Asteroides ATCC9970; conditions: organism code VV; BHI agar, 35-37° C., 20 to 24 hours; unit assumed
In short: as §1

[11] = tested on: Staphylococcus aureus 1775; conditions: organism code GG; BHI agar, 35-37° C., 20 to 24 hours; unit assumed
In short: as §1

[12] = tested on: Staphylococcus aureus A-5278; conditions: organism code CC; BHI agar, 35-37° C., 20 to 24 hours; unit assumed
In short: as §1

[13] = tested on: Staphylococcus aureus A5177; conditions: organism code BB; BHI agar, 35-37° C., 20 to 24 hours; unit assumed
In short: as §1

[14] = tested on: Staphylococcus aureus ATCC 6538P; conditions: organism code AA; BHI agar, 35-37° C., 20 to 24 hours; unit assumed
In short: as §1

[15] = tested on: Staphylococcus aureus CMX 553; conditions: organism code FF; BHI agar, 35-37° C., 20 to 24 hours; unit assumed
In short: as §1

[16] = tested on: Staphylococcus aureus CMX 642A; conditions: organism code DD; BHI agar, 35-37° C., 20 to 24 hours; unit assumed
In short: as §1

[17] = tested on: Staphylococcus aureus NCTC10649M; conditions: organism code EE; BHI agar, 35-37° C., 20 to 24 hours; unit assumed
In short: as §1

[18] = tested on: Staphylococcus epidermidis 3519; conditions: organism code HH; BHI agar, 35-37° C., 20 to 24 hours; unit assumed
In short: as §1

[19] = tested on: Streptococcus Pneumonia 5649; conditions: organism code ZZA; BHI agar, 35-37° C., 20 to 24 hours; unit assumed
In short: as §1

[20] = tested on: Streptococcus Pneumonia 5979; conditions: organism code ZZ; BHI agar, 35-37° C., 20 to 24 hours; unit assumed
In short: as §1

[21] = tested on: Streptococcus Pneumonia ATCC6303; conditions: organism code XX; BHI agar, 35-37° C., 20 to 24 hours; unit assumed
In short: as §1

[22] = tested on: Streptococcus Pneumonia GYR 1171; conditions: organism code YY; BHI agar, 35-37° C., 20 to 24 hours; unit assumed
In short: as §1

[23] = tested on: Streptococcus agalactiae CMX 508; conditions: organism code KK; BHI agar, 35-37° C., 20 to 24 hours; unit assumed
In short: as §1

[24] = tested on: Streptococcus bovis A-5169; conditions: organism code JJ; BHI agar, 35-37° C., 20 to 24 hours; unit assumed
In short: as §1

[25] = tested on: Streptococcus pyogenes 930; conditions: organism code MM; BHI agar, 35-37° C., 20 to 24 hours; unit assumed
In short: as §1

[26] = tested on: Streptococcus pyogenes EES61; conditions: organism code LL; BHI agar, 35-37° C., 20 to 24 hours; unit assumed
In short: as §1

[27] = tested on: Streptococcus pyogenes PIU 2548; conditions: organism code NN; BHI agar, 35-37° C., 20 to 24 hours; unit assumed
In short: as §1

Structure (SMILES)	MIC [1]	MIC [2]	MIC [3]	MIC [4]	MIC [5]	MIC [6]	MIC [7]	MIC [8]	MIC [9]	MIC [10]	MIC [11]	MIC [12]	MIC [13]	MIC [14]	MIC [15]	MIC [16]	MIC [17]	MIC [18]	MIC [19]	MIC [20]	further results
CC[C@H]1OC(=O)[C@H](C)C(=O)[C@H](C)[C@@H](O[C@@H]2O[C@H](C)C[C@H](N(C)C)[C@H]2O)[C@](C)(OCC#Cc2ccc(-c3nccs3)s2)C[C@@H](C)C(=O)[C@H](C)[C@H]2NC(=O)O[C@@]21C [Example 28]	> 100 µg/mL	0.05 µg/mL (≈ 0.0623 µM)	12.5 µg/mL (≈ 15.6 µM)	25 µg/mL (≈ 31.2 µM)	0.1 µg/mL (≈ 0.125 µM)	2 µg/mL (≈ 2.49 µM)	0.1 µg/mL (≈ 0.125 µM)	0.01 µg/mL (≈ 0.0125 µM)	0.2 µg/mL (≈ 0.249 µM)	0.05 µg/mL (≈ 0.0623 µM)	> 100 µg/mL	> 100 µg/mL	0.05 µg/mL (≈ 0.0623 µM)	0.05 µg/mL (≈ 0.0623 µM)	0.05 µg/mL (≈ 0.0623 µM)	0.05 µg/mL (≈ 0.0623 µM)	0.1 µg/mL (≈ 0.125 µM)	0.05 µg/mL (≈ 0.0623 µM)	0.25 µg/mL (≈ 0.312 µM)	1 µg/mL (≈ 1.25 µM)	MIC [21]: 0.03 µg/mL (≈ 0.0374 µM); MIC [22]: 0.03 µg/mL (≈ 0.0374 µM); MIC [23]: 0.02 µg/mL (≈ 0.0249 µM); MIC [24]: ≤ 0.005 µg/mL; MIC [25]: 12.5 µg/mL (≈ 15.6 µM); MIC [26]: ≤ 0.005 µg/mL; MIC [27]: 0.1 µg/mL (≈ 0.125 µM)
CC[C@H]1OC(=O)[C@H](C)C(=O)[C@H](C)[C@@H](O[C@@H]2O[C@H](C)C[C@H](N(C)C)[C@H]2O)[C@](C)(OC/C=C/c2ccc(-c3ccccn3)s2)C[C@@H](C)C(=O)[C@H](C)[C@H]2NC(=O)O[C@@]21C [Example 75]	> 100 µg/mL	0.05 µg/mL (≈ 0.0627 µM)	25 µg/mL (≈ 31.3 µM)	50 µg/mL (≈ 62.7 µM)	0.39 µg/mL (≈ 0.489 µM)	2 µg/mL (≈ 2.51 µM)	0.1 µg/mL (≈ 0.125 µM)	0.02 µg/mL (≈ 0.0251 µM)	1.56 µg/mL (≈ 1.95 µM)	0.02 µg/mL (≈ 0.0251 µM)	> 100 µg/mL	> 100 µg/mL	0.05 µg/mL (≈ 0.0627 µM)	0.05 µg/mL (≈ 0.0627 µM)	0.05 µg/mL (≈ 0.0627 µM)	0.05 µg/mL (≈ 0.0627 µM)	0.05 µg/mL (≈ 0.0627 µM)	0.05 µg/mL (≈ 0.0627 µM)	0.125 µg/mL (≈ 0.157 µM)	1 µg/mL (≈ 1.25 µM)	MIC [21]: ≤ 0.004 µg/mL; MIC [22]: ≤ 0.004 µg/mL; MIC [23]: 0.02 µg/mL (≈ 0.0251 µM); MIC [24]: 0.01 µg/mL (≈ 0.0125 µM); MIC [25]: 12.5 µg/mL (≈ 15.7 µM); MIC [26]: 0.02 µg/mL (≈ 0.0251 µM); MIC [27]: 0.1 µg/mL (≈ 0.125 µM)
CC[C@H]1OC(=O)[C@H](C)C(=O)[C@H](C)[C@@H](O[C@@H]2O[C@H](C)C[C@H](N(C)C)[C@H]2O)[C@](C)(OCC#Cc2ccc(-c3cccc([N+](=O)[O-])c3)s2)C[C@@H](C)C(=O)[C@H](C)[C@H]2NC(=O)O[C@@]21C [Example 21]	> 100 µg/mL	0.05 µg/mL (≈ 0.0595 µM)	> 100 µg/mL	> 100 µg/mL	0.2 µg/mL (≈ 0.238 µM)	8 µg/mL (≈ 9.52 µM)	0.05 µg/mL (≈ 0.0595 µM)	0.02 µg/mL (≈ 0.0238 µM)	0.2 µg/mL (≈ 0.238 µM)	0.2 µg/mL (≈ 0.238 µM)	100 µg/mL (≈ 119 µM)	> 100 µg/mL	0.05 µg/mL (≈ 0.0595 µM)	0.1 µg/mL (≈ 0.119 µM)	0.05 µg/mL (≈ 0.0595 µM)	0.05 µg/mL (≈ 0.0595 µM)	0.1 µg/mL (≈ 0.119 µM)	0.2 µg/mL (≈ 0.238 µM)	0.5 µg/mL (≈ 0.595 µM)	2 µg/mL (≈ 2.38 µM)	MIC [21]: 0.03 µg/mL (≈ 0.0357 µM); MIC [22]: 0.03 µg/mL (≈ 0.0357 µM); MIC [23]: 0.02 µg/mL (≈ 0.0238 µM); MIC [24]: 0.02 µg/mL (≈ 0.0238 µM); MIC [25]: 0.78 µg/mL (≈ 0.929 µM); MIC [26]: 0.02 µg/mL (≈ 0.0238 µM); MIC [27]: 0.2 µg/mL (≈ 0.238 µM)
CC[C@H]1OC(=O)[C@H](C)C(=O)[C@H](C)[C@@H](O[C@@H]2O[C@H](C)C[C@H](N(C)C)[C@H]2O)[C@](C)(OC/C=C/c2cncc(-c3nccs3)c2)C[C@@H](C)C(=O)[C@H](C)[C@H]2NC(=O)O[C@@]21C [Example 51]	> 100 µg/mL	0.05 µg/mL (≈ 0.0626 µM)	25 µg/mL (≈ 31.3 µM)	100 µg/mL (≈ 125 µM)	0.2 µg/mL (≈ 0.25 µM)	2 µg/mL (≈ 2.5 µM)	0.2 µg/mL (≈ 0.25 µM)	0.01 µg/mL (≈ 0.0125 µM)	0.39 µg/mL (≈ 0.488 µM)	0.05 µg/mL (≈ 0.0626 µM)	> 100 µg/mL	> 100 µg/mL	0.05 µg/mL (≈ 0.0626 µM)	0.1 µg/mL (≈ 0.125 µM)	0.1 µg/mL (≈ 0.125 µM)	0.1 µg/mL (≈ 0.125 µM)	0.1 µg/mL (≈ 0.125 µM)	0.1 µg/mL (≈ 0.125 µM)	0.25 µg/mL (≈ 0.313 µM)	> 128 µg/mL	MIC [21]: ≤ 0.004 µg/mL; MIC [22]: ≤ 0.004 µg/mL; MIC [23]: 0.01 µg/mL (≈ 0.0125 µM); MIC [24]: 0.01 µg/mL (≈ 0.0125 µM); MIC [25]: 6.2 µg/mL (≈ 7.76 µM); MIC [26]: 0.02 µg/mL (≈ 0.025 µM); MIC [27]: 0.2 µg/mL (≈ 0.25 µM)
CC[C@H]1OC(=O)[C@H](C)C(=O)[C@H](C)[C@@H](O[C@@H]2O[C@H](C)C[C@H](N(C)C)[C@H]2O)[C@](C)(OC/C=C/c2nc(-c3cccs3)cs2)C[C@@H](C)C(=O)[C@H](C)[C@H]2NC(=O)O[C@@]21C [Example 67]	> 100 µg/mL	0.05 µg/mL (≈ 0.0622 µM)	> 100 µg/mL	> 100 µg/mL	0.78 µg/mL (≈ 0.97 µM)	8 µg/mL (≈ 9.95 µM)	0.1 µg/mL (≈ 0.124 µM)	0.02 µg/mL (≈ 0.0249 µM)	0.39 µg/mL (≈ 0.485 µM)	0.1 µg/mL (≈ 0.124 µM)	> 100 µg/mL	> 100 µg/mL	0.1 µg/mL (≈ 0.124 µM)	0.1 µg/mL (≈ 0.124 µM)	0.1 µg/mL (≈ 0.124 µM)	0.1 µg/mL (≈ 0.124 µM)	0.1 µg/mL (≈ 0.124 µM)	0.1 µg/mL (≈ 0.124 µM)	0.25 µg/mL (≈ 0.311 µM)	32 µg/mL (≈ 39.8 µM)	MIC [21]: 0.03 µg/mL (≈ 0.0373 µM); MIC [22]: 0.03 µg/mL (≈ 0.0373 µM); MIC [23]: 0.01 µg/mL (≈ 0.0124 µM); MIC [24]: 0.01 µg/mL (≈ 0.0124 µM); MIC [25]: 12.5 µg/mL (≈ 15.5 µM); MIC [26]: 0.01 µg/mL (≈ 0.0124 µM); MIC [27]: 0.1 µg/mL (≈ 0.124 µM)
